Results from patent US9993000B2, “Isosorbide ether derivatives with preservation activity” (BASF SE, priority 2015, dated 2018).

How the values were obtained:
Assay in all cases: Minimum Inhibitory Concentration (MIC) according to DIN 58 940
Format in all cases: cell-based
Aspergillus brasiliensis = settings: Asperigillus brasiliensis
Source text: (§1) MIC: Determination of Minimum Inhibitory Concentration (MIC) according to DIN 58 940

Brevibacterium epidermis = test system: Brevibacterium epidermis
Source text: as §1

Candida albicans = test system: Candida albicans
Source text: as §1

Escherichia coli = test system: Escherichia coli
Source text: as §1

Malassezia furfur = settings: Malasse zia furfur
Source text: as §1

Propionibacterium acnes = test system: Propionibacterium acnes
Source text: as §1

Pseudomonas aeruginosa = test system: Pseudomonas aeruginosa
Source text: as §1

Staphylococcus aureus = test system: Staphylococcus aureus
Source text: as §1

Staphylococcus epidermis = test system: Staphylococcus epidermis
Source text: as §1

Row | Compound | MIC (Aspergillus brasiliensis) | MIC (Brevibacterium epidermis) | MIC (Candida albicans) | MIC (Escherichia coli) | MIC (Malassezia furfur) | MIC (Propionibacterium acnes) | MIC (Pseudomonas aeruginosa) | MIC (Staphylococcus aureus) | MIC (Staphylococcus epidermis) [ppm]
1 | CCCCCCCCCCC(O)COC1COC2C(O)COC12 (stereo not drawn) [Compound (4)] | <200 ppm | ≤20 ppm | ≤20 ppm | <2,000 ppm | ≤20 ppm | <100 ppm | <1,000 ppm | <100 ppm | ≤20
2 | CCCCCCCCC(O)COC1COC2C(O)COC12 (stereo not drawn) [Compound (3)] | <1000 ppm | ≤200 ppm | ≤100 ppm | <2,000 ppm | ≤2500 ppm | <50 ppm | <1,000 ppm | <500 ppm | ≤20
3 | CCCCCCCCCCCCOC1COC2C(O)COC12 (stereo not drawn) [Compound (2)] | ≤20 ppm | ≤20 ppm | ≤20 ppm | >10,000 ppm | 2,500 ppm | ≤20 ppm | >10,000 ppm | <50 ppm | ≤20
4 | CCCCCCCCOC1COC2C(OCCCCCCCC)COC12 (stereo not drawn) [Comperative compound (1), reference compound] | >10,000 ppm | >10,000 ppm | >10,000 ppm | >10,000 ppm | >10,000 ppm | >10,000 ppm | >10,000 ppm | >10,000 ppm | <200
5 | CCCCCCCCOC1COC2C(O)COC12 (stereo not drawn) [Compound (1)] | <200 ppm | <500 ppm | <50 ppm | <1,000 ppm | <1,000 ppm | <500 ppm | <1,000 ppm | <500 ppm | <100
